{
  "source": "paper PMC5884652",
  "about": "“New antimicrobial peptide kills drug-resistant pathogens without detectable resistance” (Oncotarget, 2018)",
  "key": {"[1]": {"tested_on": "Bacillus subtilis KCTC 1998", "format": "cell-based", "from_the_text": "(§1) The method for peptide synthesis has been described in detail previously. E. coli ATCC 25922 (LB media), P. aeruginosa ATCC 15692 (NB+0.5% NaCl media), Listeria monocytogenes ATCC 3710 (LB media), Staphylococcus epidermidis ATCC 12228 (LB media), and S. aureus ATCC 29213 (TSB media) were obtained from the American Type Culture Collection (Manassas, VA, USA). Bacillus subtilis KCTC 1998 (LB media), Salmonella typhimurium KCTC 1926 (NB media), and Proteus vulgaris KCTC 2433 (NB media) were obtained from the Korean Collection for Type Cultures (Jeollabuk-do, Korea). E. coli CCARM 1238 was received from the Culture Collection of Antibiotic Resistant Microbes at Seoul Women’s University, Korea. Drug-resistant P. aeruginosa 3543, 3904, 3547, and 4007 and S. aureus 3126, 0027, 5157, 1635, 4761, 5159, 3359, 2122, 1630, 1870, 3511, 5156, and 3518 were resistant strains isolated from patients with otitis media in a Chonnam National University’s hospital.\n(§2) The antibacterial activities of AMPs (melittin, clavaspirin, and its analogs) and conventional antibiotic drugs (erythromycin, gentamicin, ampicillin, and piperacidin) were determined using microdilution assays. Bacterial cells were cultured at 37° C in appropriate culture media at pH 5.5 or pH 7.4 until collection during the mid-log phase and suspended in 10 mM sodium phosphate buffer (pH 5.5 or pH 7.4) supplemented with 10% culture medium. Thereafter, 2× serial dilutions of each peptide (0.25–128 μM) or antibiotic (0.25–256 μM) were added to sterile 96-well plates, and aliquots of cell suspension (5 × 10^5 colony forming units (cfu)/mL) were seeded into each well. The samples were then incubated at 37° C for 24 h. At the end of the incubation, the minimum inhibitory concentrations (MICs) of the peptides were determined using a VERSA Max microplate reader (Molecular Devices Co., Sunnyvale, CA, USA) at a wavelength of 600 nm. […] MIC values were calculated as the mean of 3 independent experiments conducted in triplicate."}, "[2]": {"tested_on": "Listeria monocytogenes ATCC 3710", "format": "cell-based", "from_the_text": "as §1, §2"}, "[3]": {"tested_on": "Staphylococcus epidermidis ATCC 12228", "format": "cell-based", "from_the_text": "as §1, §2"}, "S. aureus ATCC 29213": {"tested_on": "S. aureus ATCC 29213", "format": "cell-based, Staphylococcus aureus", "from_the_text": "as §1, with “E. coli ATCC 25922 (LB media), P. aeruginosa ATCC 15692 (NB+0.5% NaCl media), Listeria monocytogenes ATCC 3710 (LB media), Staphylococcus epidermidis ATCC 12228 (LB media), and S. aureus ATCC 29213 (TSB media) were obtained from the American Type Culture Collection (Manassas, VA, USA).” left out\nas §2"}, "[4]": {"tested_on": "Proteus vulgaris KCTC 2433", "format": "cell-based", "from_the_text": "as §1, with “Bacillus subtilis KCTC 1998 (LB media), Salmonella typhimurium KCTC 1926 (NB media), and Proteus vulgaris KCTC 2433 (NB media) were obtained from the Korean Collection for Type Cultures (Jeollabuk-do, Korea).” left out\nas §2"}, "[5]": {"tested_on": "Salmonella typhimurium KCTC 1926", "format": "cell-based", "from_the_text": "as §1, with “Bacillus subtilis KCTC 1998 (LB media), Salmonella typhimurium KCTC 1926 (NB media), and Proteus vulgaris KCTC 2433 (NB media) were obtained from the Korean Collection for Type Cultures (Jeollabuk-do, Korea).” left out\nas §2"}, "[6]": {"tested_on": "HaCaT (human keratinocyte) cells", "experiment": "Cytotoxicity, MTT assay", "format": "cell-based", "conditions": "DMEM containing 10% FBS and 1% PS, 24 h, 37° C; for EC50: read-out: EC50 (effective concentration in HaCaT cells)", "protocol": "To examine the cytotoxic effects of the peptides, HaCaT (human keratinocyte) cells were cultured in Dulbecco’s modified Eagle’s medium (DMEM) supplemented with antibiotics (100 U/ml penicillin and 100 μg/ml streptomycin) and 10% fetal calf serum at 37° C in a humidified chamber under a 5% CO2 atmosphere. Growth inhibition was evaluated using 3-(4, 5-dimethylthizol-2-yl)-2, 5-diphenyltetrazolium bromide (MTT) assays to measure cell viability. After cells were seeded into a 96-well plate at a density of 2 × 10^4/well and incubated for 24 h, twofold serial dilutions of each peptide in DMEM were added to the wells, and the cells were incubated for an additional 24 h at 37° C. Thereafter, 10 μl of MTT (5 mg/ml) was added to each well, and the plate was incubated for 4 h. The supernatants were then removed, and 50 μl of DMSO was added to each well to dissolve any remaining precipitate. Finally, the absorbance at 570 nm was measured using a microtiter reader."}, "[7]": {"experiment": "C18 RP-HPLC retention time as measure of hydrophobicity", "format": "physicochemical", "conditions": "chromatographic, linear gradient of 10–60 acetonitrile containing 0.7% trifluoroacetic acid for 50 min, mean, used as measure of hydrophobicity", "protocol": "Supplementary Table 1: Sequence, molecular mass, retention time, and hemolytic and cytotoxic activities of clavaspirin and its analogues\nDesignation Sequences Molecular Retention HC /HC a EC /EC b\nThe meanretention time was analyzed using C18 reversed phase-high-performance liquid chromatography (RP-HPLC).\nSamples were run using a linear gradient of 10–60 acetonitrile, containing 0.7% trifluoroacetic acid for 50 min. aHemolytic activity was determined in PBS buffer containing 8% hRBCs. bEffective concentration in HaCaT cells was determined in DMEM buffer containing 10% FBS and 1% PS."}, "[8]": {"conditions": "pH 5.5 (I), 10 mM sodium phosphate buffer, 10% LB, 37° C, 24 h, mean of 3 experiments"}, "[9]": {"conditions": "pH 7.4 (II), 10 mM sodium phosphate buffer, 10% LB, 37° C, 24 h, mean of 3 experiments"}},
  "note": "Like-named read-outs stand apart in the source and are kept apart here. Ends that are not written are not given here.",
  "data": [
    {"substance": "FKRFIGSVKHGIGHLVHHIGVAL-NH2 [CSP-3]", "values": [
      {"measurement": "MIC, B. subtilis", "setting": "[1]; KCTC 1998, 24 h, pH 5.5", "value": 8, "unit": "µM"},
      {"measurement": "MIC, B. subtilis", "setting": "[1]; KCTC 1998, 24 h, pH 7.4", "value": 16, "unit": "µM"},
      {"measurement": "MIC, L. monocytogenes", "setting": "[2]; ATCC 3710, 24 h, pH 5.5", "value": 16, "unit": "µM"},
      {"measurement": "MIC, L. monocytogenes", "setting": "[2]; ATCC 3710, 24 h, pH 7.4", "value": 8, "unit": "µM"},
      {"measurement": "MIC, S. epidermidis", "setting": "[3]; ATCC 12228, 24 h, pH 5.5", "value": 4, "unit": "µM"},
      {"measurement": "MIC, S. epidermidis", "setting": "[3]; ATCC 12228, 24 h, pH 7.4", "value": 8, "unit": "µM"},
      {"measurement": "MIC, S. aureus", "setting": "S. aureus ATCC 29213; ATCC 29213, 24 h, pH 5.5", "value": 8, "unit": "µM"},
      {"measurement": "MIC, S. aureus", "setting": "S. aureus ATCC 29213; ATCC 29213, 24 h, pH 7.4", "value": 8, "unit": "µM"},
      {"measurement": "MIC, P. vulgaris", "setting": "[4]; KCTC 2433, 24 h, pH 5.5", "value": 4, "unit": "µM"},
      {"measurement": "MIC, P. vulgaris", "setting": "[4]; KCTC 2433, 24 h, pH 7.4", "value": 8, "unit": "µM"},
      {"measurement": "MIC, S. typhimurium", "setting": "[5]; KCTC 1926, 24 h, pH 5.5", "value": 64, "unit": "µM"},
      {"measurement": "MIC, S. typhimurium", "setting": "[5]; KCTC 1926, 24 h, pH 7.4", "value": 4, "unit": "µM"},
      {"measurement": "EC10 (effective concentration in HaCaT cells)", "setting": "[6]", "value": 84},
      {"measurement": "EC50", "setting": "[6]", "value": 188, "unit": "µM"},
      {"measurement": "Retention time", "setting": "[7]", "value": 21.4, "unit": "min"}
    ]},
    {"substance": "FLRFIGSVKHGKGHLVHHIGVAL-NH2 [CSP-4]", "values": [
      {"measurement": "MIC, B. subtilis", "setting": "[1]; [8]", "value": 4, "unit": "µM"},
      {"measurement": "MIC, B. subtilis", "setting": "[1]; [9]", "value": 4, "unit": "µM"},
      {"measurement": "MIC, L. monocytogenes", "setting": "[2]; [8]", "value": 4, "unit": "µM"},
      {"measurement": "MIC, L. monocytogenes", "setting": "[2]; [9]", "value": 4, "unit": "µM"},
      {"measurement": "MIC, S. epidermidis", "setting": "[3]; [8]", "value": 4, "unit": "µM"},
      {"measurement": "MIC, S. epidermidis", "setting": "[3]; [9]", "value": 8, "unit": "µM"},
      {"measurement": "MIC, S. aureus", "setting": "S. aureus ATCC 29213; [8]", "value": 8, "unit": "µM"},
      {"measurement": "MIC, S. aureus", "setting": "S. aureus ATCC 29213; [9]", "value": 8, "unit": "µM"},
      {"measurement": "MIC, P. vulgaris", "setting": "[4]; [8]", "value": 4, "unit": "µM"},
      {"measurement": "MIC, P. vulgaris", "setting": "[4]; [9]", "value": 8, "unit": "µM"},
      {"measurement": "MIC, S. typhimurium", "setting": "[5]; [8]", "value": 64, "unit": "µM"},
      {"measurement": "MIC, S. typhimurium", "setting": "[5]; [9]", "value": 4, "unit": "µM"},
      {"measurement": "EC10 (effective concentration in HaCaT cells)", "setting": "[6]", "value": "> 400"},
      {"measurement": "EC50", "setting": "[6]", "value": "> 400", "unit": "µM"},
      {"measurement": "Retention time", "setting": "[7]", "value": 20.2, "unit": "min"}
    ]}
  ]
}
